# From US4138492A, “Aromatic amides of heterocyclic compounds and therapeutic compositions containing same” (priority 1974, dated 1979)
# Where a name gives a salt, the structure may show the parent alone. Read-outs that look alike come from different tables or passages of the source.
# Experiments:
# in vivo = conditions: rat, po
# [1] = system: apomorphine-induced gnawing; experiment: Antiapomorphine activity (apomorphine-induced gnawing) in the rat; format: in vivo
# Description: A number of the compounds of the present invention were screened in parallel with metoclopramide for potential anti-emetic effects against apomorphine-induced gnawing in the rat and as local anaesthetics on the rat sciatic nerve (Table I).
# *Antiapomorphine activity in rat scored as […]
# [2] = system: electrically induced convulsions; experiment: Electrically induced convulsions in mice; format: in vivo
# [3] = system: gastric emptying time in humans; experiment: Gastric emptying in humans, evaluated by radiologist; format: in vivo; design: key to effect on gastric emptying: +: no effect; ++: moderate effect; +++: good effect; ++++: maximum effect
# Description: The evaluation was based on the subjective opinion of the radiologist in terms of the time required for the appearance of peristaltic waves and their capacity to evacuate. the stomach, according to the following scheme:
# [4] = Metabolism and pharmacokinetics in the rat; format: in vivo
# oxotremorine [5] = experiment: Oxotremorine test in mice; conditions: mice previously treated with sub-threshold dose of oxotremorine
# writhing syndrome = experiment: Writhing syndrome induced by intra-peritoneal acetic acid in mice; format: in vivo; conditions: 300 mg/kg per os
# Description: The HCl-Clebopride salt does have antipyretic and analgesic activity.
# [6] = system: convulsions induced by strychnine; experiment: Strychnine-induced convulsions in the mouse; format: in vivo
# [7] = Metabolism and pharmacokinetics in the rabbit; format: in vivo
# gastric emptying = experiment: Decrease of gastric emptying time in rats; format: in vivo, rat; conditions: compared with metoclopramide
# parasympathetic system = experiment: Parasympatholytic activity; conditions: in vivo
# inflammation = experiment: Anti-inflammatory activity; conditions: in vivo
# incoordination [8] = experiment: Incoordination on accelerating rota-rod in the mouse
# [9] = system: convulsions induced by leptazol; experiment: Leptazol-induced convulsions in the mouse; format: in vivo
# [10] = Local anaesthetic activity in mice; format: in vivo; conditions: compared with metoclopramide or procaine
# [11] = system: spontaneous motor activity; experiment: Spontaneous motor activity in the mouse
# [12] = system: apomorphine-induced vomiting; experiment: Apomorphine-induced vomiting in the dog; format: in vivo; conditions: for ED50: Canis lupus familiaris, po, per os, Table II, read-out: ED50 (95% confidence limits), apomorphine induced vomiting
# autonomic nervous system = experiment: Effect on the autonomic nervous system; conditions: in vivo
# [13] = Therapeutic effect and side effects in humans; format: in vivo; conditions: suitable doses
# Protocol: They may be used in doses of from 0.1 to 1000 mg per day for the treatment of nausea and vomiting due to gastrointestinal disorders, congestive heart failure, post operative conditions, etc., other gastrointestinal tract disorders such as dyspepsia, flatulence, bile regurgitations, hiatus hernia, peptic ulcer, reflux aerophagitis, gastritis, duodenitis and cholethiasis, and as an adjunt to radiography of the gastrointestinal tract and for overcoming gastrointestinal stasis for diagnostic or therapeutic purposes and a variety of conditions affecting the central nervous system such as acute and chronic psychoses, maniacal psychosis, schizophrenias, serious disturbances of behavior and non-melancholic depressive state and migraine.
# A number of the instant compounds, particularly the hydrogen chloride, malate and methanesulfonate salts of Clebopride have been extensively tested in humans to determine maximum dosages and the therapeutic effects of the compounds. These compounds have been administered to humans orally and parenterally.
# Dosages of between 0.1 and 30 mg per day have been shown useful depending upon the length of treatment and therapeutic effect desired.
# [14] = system: cardiovascular and respiratory systems; experiment: Cardiovascular and respiratory effects in cats anaesthetized with chloralose; format: in vivo
# Description: HCl-Clebopride salt has weak effects on the cardiovascular and respiratory systems.
# [15] = system: spontaneous motor activity; conditions: mouse, in vivo
# oxotremorine [16] = conditions: mouse, in vivo
# incoordination [17] = conditions: mouse, in vivo
# [18] = Pharmacokinetics after oral administration of high doses of the malate salt; format: in vivo
# healthy male volunteers = experiment: Acute tolerance following intramuscular and intravenous administration in humans; format: in vivo
# Protocol: Another study has been made to investigate the acute tolerance of the malate salt of Clebopride following intramuscular and intravenous administration in humans.
# The subjects used were healthy male volunteers between 20 and 24 years of age and were divided into 8 groups and dosed with the test compound according to the following scheme:
# Group I: 1 mg intramuscular per day for 5 days
# Group II: 1.5 mgs intrasmuscular per day for 5 days
# Group III: 2 mgs intramuscular per day for 5 days
# Group IV: 0.25 mg intravenously per day for 5 days
# Group V: 0.50 mg intravenously per day for 5 days
# Group VI: 1 mg intravenously per day for 5 days
# Group VII: 1.5 mgs intravenously per day for 5 days
# Group VIII: 2 mgs intravenously per day for 5 days
# The parameters evaluated were subjective symptoms; psychic disturbances; neurological disturbances; autonomic symptoms; digestive disturbances; urogenital disturbances; skin and mucous membranes; pulse; blood pressure; temperature; other side effects; blood analysis--leucocytes formula, hemoglobin content, erythrocyte sedimentation rate, glucose, cholesterol, urea, hepatic function tests, transaminasas; and urine analysis--density, albumin, sediment.
# [19] = 2 mg, compared with 20 mg of metoclopramide
# [20] = Rattus norvegicus, po; rats; per os; Table III; read-out: Antiapomorphine Activity, Rats, ED50 (95% confidence limits)
# [21] = Rattus norvegicus, po; per os; Table I; read-out: ED50 Values
# [22] = cats, slow intravenous infusion 1 mg/kg/min. to total 10 mg/kg
compound,measurement,setting,value
"CN(C)CCCN1c2ccccc2Sc2ccc(Cl)cc21 [Chlorpromazine, reference compound]",TD50,in vivo,12.3 mg/kg
same,ED50,"[1]; Rattus norvegicus, po, read-out: Antiapomorphine Activity, Rats, ED50 (95% confidence limits)",7.95 mg/kg
same,minimal effective dose,"[1]; Rattus norvegicus, read-out: Antiapomorphine in rat",6.25 mg/kg
"COc1cc(N)c(Cl)cc1C(=O)NC1CCN(Cc2ccccc2)CC1 [Clebopride, N-[4'-(1'-benzyl)-piperidyl]-2-methoxy-4-amino-5-chloro-benzamide]",potency in preventing electrically induced convulsions,[2]; mice,somewhat more potent than metoclopramide
same,catatonia,"catatonia in rats; rat, in words",noted in the rat
same,antiemetic doses compared with those causing catatonia,"catatonia in rats; rats, Table III",exhibits antiemetic activity (anti-apomorphine activity) at doses which are far removed from those causing catatonia
same,No. of Patients with + (no effect),"[3]; 0.2 mg by mouth, 6 patients",0
same,No. of Patients with ++ (moderate effect),"[3]; 0.2 mg by mouth, 6 patients",0
same,No. of Patients with +++ (good effect),"[3]; 0.2 mg by mouth, 6 patients",6
same,No. of Patients with ++++ (maximum effect),"[3]; 0.2 mg by mouth, 6 patients",0
same,contraction of the stomach,"[3]; 0.2 mg, compared with 20 mgs of metoclopramide",as rapid and forceful contraction of the stomach as 20 mgs of metoclopramide
same,No. of Patients with + (no effect),"[3]; 1 mg by mouth, 6 patients",1
same,No. of Patients with ++ (moderate effect),"[3]; 1 mg by mouth, 6 patients",2
same,No. of Patients with +++ (good effect),"[3]; 1 mg by mouth, 6 patients",3
same,No. of Patients with ++++ (maximum effect),"[3]; 1 mg by mouth, 6 patients",0
same,No. of Patients with + (no effect),"[3]; 2 mg by mouth, 8 patients",0
same,No. of Patients with ++ (moderate effect),"[3]; 2 mg by mouth, 8 patients",2
same,No. of Patients with +++ (good effect),"[3]; 2 mg by mouth, 8 patients",3
same,No. of Patients with ++++ (maximum effect),"[3]; 2 mg by mouth, 8 patients",3
same,contraction of the stomach,[3]; [19],more forceful contraction than 20 mg of metoclopramide
same,onset of action,[3]; [19],more rapid onset of action
same,No. of Patients with + (no effect),"[3]; 5 mg by mouth, 9 patients",0
same,No. of Patients with ++ (moderate effect),"[3]; 5 mg by mouth, 9 patients",2
same,No. of Patients with +++ (good effect),"[3]; 5 mg by mouth, 9 patients",0
same,No. of Patients with ++++ (maximum effect),"[3]; 5 mg by mouth, 9 patients",7
same,TD50,in vivo,47.6 mg/kg
same,pharmacokinetics after intravenous administration,[4]; intravenous,follows a similar pattern in both species
same,salivation and tremors,oxotremorine [5],capable of causing salivation and tremors
same,inhibition of writhing syndrome,writhing syndrome,almost completely inhibited the writhing syndrome
same,ED50,[1]; [20],1.85 mg/kg
same,inhibition of convulsions induced by strychnine,[6],neither Clebopride nor metoclopramide appear to inhibit convulsions induced by strychnine
same,pharmacokinetics after intravenous administration,[7]; intravenous,follows a similar pattern in both species
"COc1cc(N)c(Cl)cc1C(=O)NC1CCN(Cc2ccccc2)CC1 [Compound 2, N-[4'-(1'-benzyl)-piperidyl]-2-methoxy-4-amino-5-chloro-benzamide]",anti-convulsant activity,"[2]; mouse, in vivo",has anti-convulsant activity
same,"ability to decrease gastric emptying time, potency",gastric emptying,potency similar to that of metoclopramide
same,parasympatholytic activity,parasympathetic system,no appreciable parasympatholytic activity
same,anti-inflammatory activity,inflammation,weak anti-inflammatory activity
same,incoordination,incoordination [8],cause incoordination
same,inhibition of clonic seizures induced by leptazol,[9],apparently not clonic seizures
same,inhibition of tonic convulsions (antileptazol),[9],inhibits tonic convulsions
same,N-Debenzylation,[4],major metabolic reaction
same,cleavage of the amide bond,[4],does not appear to be a major matabolic reaction
same,extent of metabolism,[4],extensively metabolized
same,unchanged drug excreted in the urine,[4],Only very little
same,local anaesthetic potency,[10],somewhat greater than that of either metoclopramide or procaine
same,spontaneous motor activity,[11],inhibit spontaneous motor activity
same,activity against apomorphine-induced vomiting,[12],high activity
same,ED50,[12],0.0435 mg/kg
same,potency relative to metoclopramide,[12]; oral route,approximately 8 times
same,ED50,[1]; [21],~3 mg/kg
same,activity as an anti-emetic,[1]; compared with metoclopramide; from Table I,more active as an anti-emetic
same,effect on the autonomic nervous system,autonomic nervous system,does not have an appreciable effect
same,N-Debenzylation,[7],major metabolic reaction
same,cleavage of the amide bond,[7],does not appear to be a major matabolic reaction
same,conjugation with glucuronic acid and/or sulphate,[7],occurs at a large extent in the rabbit
same,extent of metabolism,[7],extensively metabolized
same,unchanged drug excreted in the urine,[7],Only very little
same,side effects,[13],virtually free of side effects
same,blood pressure,[14]; [22],slight fall
same,heart rate,[14]; [22],slight fall
same,respiratory movements,[14]; [22],slowing of respiratory movements
same,effects on the cardiovascular and respiratory systems,[14]; in vivo,weak effects
"CCN(CC)CCNC(=O)c1cc(Cl)c(N)cc1OC [Metoclopramide, reference compound]",spontaneous motor activity,[15],inhibit spontaneous motor activity
same,antiemetic doses compared with those causing catatonia,"catatonia in rats; rat, in vivo",at doses which are far removed from those causing catatonia
same,effect on gastric emptying,"[3]; 10-20 mgs, as a guide",+++
same,salivation and tremors,oxotremorine [16],capable of causing salivation and tremors
same,TD50,in vivo,93 mg/kg
same,incoordination,incoordination [17],cause incoordination
same,ED50,[12],0.343 mg/kg
same,ED50,[1]; [21],~6 mg/kg
same,ED50,[1]; [20],11.8 mg/kg
same,minimal effective dose,[1]; Rattus norvegicus; read-out: Antiapomorphine in rat,12.5 mg/kg
same,inhibition of convulsions induced by strychnine,[6],neither Clebopride nor metoclopramide appear to inhibit convulsions induced by strychnine
"COc1cc(N)c(Cl)cc1C(=O)NC1CCN(Cc2ccccc2)CC1 [malate salt of Clebopride, N-[4'-(1'-benzyl)piperidyl]-2-methoxy-4-amino-5-chlorobenzamide malate]",absorption,[18]; high doses,good absorption
same,appearance of metabolites in blood,[18]; high doses,rapid appearance of metabolites in blood
same,peak levels,[18]; high doses,rapidly appearing peak levels
same,plasma concentrations,[18]; high doses,relatively low plasma concentrations
same,first pass metabolism and/or uptake in the liver,[18]; suggested,extensive first pass metabolism and/or uptake take place in the liver
same,side effects,"healthy male volunteers; Group I: 1 mg intramuscular per day for 5 days, four subjects",one case of slight sleepiness was noted from the second day of treatment
same,side effects,"healthy male volunteers; Group II: 1.5 mgs intramuscular per day for 5 days, four subjects","Tiredness, sleepiness and fatigue in three of the four subjects in Group II accompanied with slight depression"
same,side effects,"healthy male volunteers; Group III: 2 mgs intramuscular per day for 5 days, four subjects","Three of the four subjects in Group III showed sleepiness, fatigue and depression followed by euphoria"
same,blood and urine analysis,healthy male volunteers; Groups II and VII,no significant variations
same,dose dependence of side effects,"healthy male volunteers; Groups IV to VIII, intravenous",not to be dose dependent
same,side effects,healthy male volunteers; Groups IV to VIII: 0.25 to 2 mgs intravenously per day for 5 days,"Sleepiness, fatigue and depression of medium intensity were seen in many patients"
same,additional side effects,healthy male volunteers; Groups VII and VIII: 1.5 and 2 mgs intravenously per day for 5 days,"some degree of sweating, hypersalivation and dryness of the mouth were variously seen"
